Reference: US11390580B2, “Anti-fungals targeting the synthesis of fungal shingolipids” (THE RESEARCH FOUNDATION FOR THE STATE UNIVERSITY OF NEW YORK, priority 2014, dated 2022)
Values after ≈ are worked out from the molar mass of the structure shown. Values joined by “and” are separate entries in the source; they are usually repeats but may differ in a detail not shown here. Equal entries are not always repeated. Where two headings read alike, the source gives them in different places.

Legend:
[1] = test system: Cryptococcus gattii; test: In vitro susceptibility testing (MIC); assay type: cell-based
[2] = test system: Candida albicans; test: In vitro susceptibility testing (MIC); assay type: cell-based
[3] = test system: Candida krusei; test: In vitro susceptibility testing (MIC); assay type: cell-based; settings: for BHBM 24 Hr 50% / BHBM 48 Hr 50%: MIC, QC strain
[4] = test system: Candida guilliermondii; test: In vitro susceptibility testing (MIC); assay type: cell-based
[5] = test system: Aspergillus fumigatus; test: In vitro susceptibility testing (MIC); assay type: cell-based
[6] = test system: Rhizopus oryzae; test: In vitro susceptibility testing (MIC); assay type: cell-based
[7] = test system: Histoplasma capsulatum; assay type: cell-based
[8] = test system: Coccidioides spp; test: microbe, parasite or virus in culture; assay type: cell-based; settings: for BHBM 48 Hr 50%: MIC, FTL strains
[9] = test system: Paecilomyces variotii; test: In vitro susceptibility testing (MIC); assay type: cell-based; settings: for BHBM 24 Hr 50% / BHBM 48 Hr 50%: MIC, QC strain
[10] = Solubility; assay type: physicochemical; settings: at 1 mg/ml concentration
[11] = test system: L2 cell line; test: In vitro toxicity; assay type: cell-based
[12] = Pharmacokinetics of BHBM; assay type: in vivo, mice
Protocol: The mice from each group were sacrificed and blood samples were collected at pre-dose and 0.5, 1, 2, 4, 8, 12, and 24 post-administration into K2EDTA containing tubes. The samples were centrifuged immediately and plasma was collected and stored at −80° C. until analysis. Plasma samples were extracted using methylene chloride. […] After mixing, 1 ml of methylene chloride was added and the samples were vortex mixed for 30 seconds followed by centrifugation for 5 minutes. […] The residue was reconstituted in 100 μL acetonitrile: water (50:50) solution, mixed and transferred to mass spec vials. […] The mobile phase consisted of water: acetonitrile with 0.1% formic acid (50:50) ran at a flow rate of 200 μL/min. Aliquots of 5 μL were analyzed using LTQ-FT liquid chromatography/tandem mass spectrometer (LC/MS/MS) with electrospray source in the positive ion mode (ThermoFisher Scientific, Waltham, Mass.). The retention time of BHBM was 5.7 mins. The lower limit of quantification (LLOQ) was 10 ng/ml. Systemic exposure of BHBM in mice was quantified by calculating the AUC of the drug from pre-dose to the end of the dosing interval (AUC0-t) using the linear trapezoidal rule by non-compartmental analysis employing Phoenix winNonlin 6.3 (Pharsight Corp, Mountain View, Calif.). The elimination half-life (t1/2) was calculated as 0.693/λz, where λz is the terminal elimination rate constant. Bioavailability of IP route was calculated.

[13] = test system: C. albicans secreted vesicles; test: Vesicle secretion measured by vesicular sterols; assay type: cell-based, Candida albicans
Text: WF, white field; NBD-Cer, NBD-ceramide.

[14] = test system: Candida spp; test: In vitro susceptibility testing; assay type: cell-based; settings: most Candida spp examined
[15] = test system: S. cerevisiae heterozygote library mutants
[16] = target: Gcs1 (Cryptococcus neoformans, UniProt J9W453); test: In vitro Gcs1 activity in cell lysate
Chain of Gcs1 (J9W453 whole entry): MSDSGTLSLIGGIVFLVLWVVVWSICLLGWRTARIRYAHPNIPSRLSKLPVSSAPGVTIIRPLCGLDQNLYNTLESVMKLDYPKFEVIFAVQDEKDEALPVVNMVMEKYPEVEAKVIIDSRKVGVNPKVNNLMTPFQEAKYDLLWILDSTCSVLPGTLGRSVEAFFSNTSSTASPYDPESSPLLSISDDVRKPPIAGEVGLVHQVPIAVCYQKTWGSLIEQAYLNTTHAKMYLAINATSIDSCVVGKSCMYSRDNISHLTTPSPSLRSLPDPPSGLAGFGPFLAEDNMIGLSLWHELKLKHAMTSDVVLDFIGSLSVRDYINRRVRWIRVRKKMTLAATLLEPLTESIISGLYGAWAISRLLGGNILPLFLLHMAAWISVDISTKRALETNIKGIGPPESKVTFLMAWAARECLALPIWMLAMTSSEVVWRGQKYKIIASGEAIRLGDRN

[17] = test system: synthesis of GlcCer in C. neoformans cells; test: In vivo labeling with 3H palmitate, TLC of GlcCer; settings: 3H palmitate labeling
[18] = test system: C. neoformans (H99); test: Transmission electron microscopy of treated cells; settings: 4 μg/mL, 6 hours
[19] = test system: Pneumocystis jiroveci; test: In vitro testing by ATP content (luciferin-luciferase); settings: for inhibition at 0.1 µg/mL / inhibition at 1 µg/mL / inhibition at 10 µg/mL / inhibition at 100 µg/mL: read-out: percentage inhibition of ATP
[20] = C3H/HeN, mouse, in vivo, ip, 0.8 mg/kg
[21] = C3H/HeN, mouse, in vivo, ip, 1.6 mg/kg

For `Cc1ccccc1C(=O)NN=Cc1ccc(O)c(Br)c1` [BHBM, N′-(3-bromo-4-hydroxybenzylidene)-2-methylbenzohydrazide], the “in vitro activity” value [1] was “good in vitro activity”, the MIC range ([1]; 3 MDP Lab strains) was 0.5 to 1 µg/mL and the MIC range ([1]; 10 Fungus Testing Lab strains) was 0.5 to 2 µg/mL. The “BHBM 72 Hr 50%” value ([1]; MIC, FTL strains) was 16 and >16 and 8, the “in vitro activity” value [2] was “not active” and the MIC range ([2]; 3 Fungus Testing Lab strains) was >32 µg/mL. For the same molecule, the MIC range ([2]; 5 MDP Lab strains) was >32 µg/mL, the MIC range ([3]; 1 MDP Lab strain) was 32 µg/mL (≈ 96 µM) and the MIC range ([3]; ATCC 6258, MDP Lab) was 16 µg/mL (≈ 48 µM). The “BHBM 24 Hr 50%” value [3] was 4, the “BHBM 48 Hr 50%” value [3] was 8 and the “BHBM 24 Hr 50%” value ([3]; first listing r7-r78) was 4. For the same molecule, the “BHBM 48 Hr 50%” value ([3]; first listing r7-r78) was 8, the MIC ([3]; Pichia kudriavzevii, read-out: MIC (moderately active)) was 8 to 16 µg/mL (≈ 24 to 48 µM) and the MIC range ([3]; QC, Fungus Testing Lab) was 8 µg/mL (≈ 24 µM). For the same molecule, the “BHBM 24 Hr 50%” value ([4]; MIC, FTL strains) was >16, the “BHBM 48 Hr 50%” value ([4]; MIC, FTL strains) was >16 and the MIC ([4]; Meyerozyma guilliermondii, read-out: MIC (moderately active)) was 8 to 16 µg/mL (≈ 24 to 48 µM). The MIC range ([5]; 1 MDP Lab strain) was 8 µg/mL (≈ 24 µM), the MIC range ([5]; 3 Fungus Testing Lab strains) was >16 µg/mL and the MIC ([5]; Aspergillus fumigatus, read-out: MIC (moderately active)) was 8 to 16 µg/mL (≈ 24 to 48 µM). The “in vitro activity” value [6] was “good in vitro activity”, the MIC range ([6]; 3 Fungus Testing Lab strains) was 2 µg/mL (≈ 6 µM) and the “in vitro activity” value [7] was “good in vitro activity”. It also gave an MIC range ([7]; 10 Fungus Testing Lab strains) of 0.125 to 1 µg/mL, an MIC range ([8]; 10 Fungus Testing Lab strains) of 8 to 16 µg/mL and an MIC ([8]; Coccidioides, read-out: MIC (moderately active)) of 8 to 16 µg/mL (≈ 24 to 48 µM). The “BHBM 48 Hr 50%” value [8] was 16 and 8 and >16, the “BHBM 48 Hr 50%” value ([8]; first listing r7-r78) was 8 and 16 and the “in vitro activity” value [9] was “not active”. The “BHBM 24 Hr 50%” value [9] was 8, the “BHBM 48 Hr 50%” value [9] was >16 and the “BHBM 24 Hr 50%” value ([9]; first listing r7-r78) was 8. The “BHBM 48 Hr 50%” value ([9]; first listing r7-r78) was >16, the MIC range ([9]; QC, Fungus Testing Lab) was >16 µg/mL and the DMSO required [10] was 30%. The toxicity [11] was “slight to moderate toxicity”, the bioavailability [12, 20] was 93.6% and the half-life [12, 20] was 0.79 h. It also gave a bioavailability [12, 21] of 100.33%, a half-life [12, 21] of 0.84 h and a half-life ([12]; C3H/HeN, mouse, in vivo, iv, 1.6 mg/kg) of 1.24 h. The bioavailability ([12]; C3H/HeN, mouse, plasma, 0.8 mg/kg, immunocompetent mice, IP low dose, read-out: bioavailability) was 93.6%, the half-life ([12]; C3H/HeN, mouse, plasma, intraperitoneal, 1.6 mg/kg) was ~1.4 h and the “systemic exposure (AUC0-t and Cmax)” value ([12]; IP administration, compared to normal group) was “higher in immunosuppressed/infected group”. It also gave a bioavailability ([12]; immunocompetent mice, IP high dose) of 90.59%, a half-life ([12]; immunocompetent mice, IP high dose (1.6 mg/kg)) of 1.43 h and a half-life ([12]; immunocompetent mice, IP low dose (0.8 mg/kg)) of 1.70 h. For the same molecule, the half-life ([12]; immunocompetent mice, IV high dose (1.6 mg/kg)) was 1.03 h, the “secreted vesicles measured by sterol content” value [13] was “marked reductions of secreted vesicles” and the in vitro susceptibility [14] was “resistant”. For the same molecule, the “Fold increased sensitivity to BHBM” value ([15]; ACT1 heterozygote mutant) was 2.0 Fold, the “Fold increased sensitivity to BHBM” value ([15]; GLC7 heterozygote mutant) was 2.1 Fold and the “Fold increased sensitivity to BHBM” value ([15]; GOS1 heterozygote mutant) was 2.1 Fold. For the same molecule, the “Fold increased sensitivity to BHBM” value ([15]; MTW1 heterozygote mutant) was 2.5 Fold, the “Fold increased sensitivity to BHBM” value ([15]; PEP7 heterozygote mutant) was 2.2 Fold and the “Fold increased sensitivity to BHBM” value ([15]; REG1 heterozygote mutant) was 2.5 Fold. For the same molecule, the “Fold increased sensitivity to BHBM” value ([15]; RET2 heterozygote mutant) was 3.8 Fold, the “Fold increased sensitivity to BHBM” value ([15]; RET3 heterozygote mutant) was 2.0 Fold and the “times more sensitive to BHBM” value ([15]; Rvs167) was 1.7 time. For the same molecule, the “Fold increased sensitivity to BHBM” value ([15]; SAP4 heterozygote mutant) was 2.1 Fold, the “Fold increased sensitivity to BHBM” value ([15]; SEC26 heterozygote mutant) was 2. Fold and the “Fold increased sensitivity to BHBM” value ([15]; SEC31 heterozygote mutant) was 2.1 Fold. For the same molecule, the “Fold increased sensitivity to BHBM” value ([15]; SNF8 heterozygote mutant) was 2.1 Fold, the “Fold increased sensitivity to BHBM” value ([15]; SPT4 heterozygote mutant) was 2.3 Fold and the “Fold increased sensitivity to BHBM” value ([15]; UBP3 heterozygote mutant) was 3.0 Fold. The “Fold increased sensitivity to BHBM” value ([15]; VPS3 heterozygote mutant) was 2.0 Fold, the “Fold increased sensitivity to BHBM” value ([15]; YML018C heterozygote mutant) was 2.1 Fold and the “in vitro activity of Gcs1” value [16] was “does not inhibit”. The “inhibition of the synthesis of GlcCer” value [17] was “significantly inhibit the synthesis of GlcCer”, the “number of vacuoles per μm^2 of cell surface area” value [18] was 0.84±0.58 and the IC50 ([19]; 24 h, read-out: IC50, P. jiroveci) was 0.912 µg/mL (≈ 2.74 µM). For the same molecule, the inhibition at 0.1 µg/mL ([19]; 24 h) was 16.1%, the inhibition at 1 µg/mL ([19]; 24 h) was 51.5% and the inhibition at 10 µg/mL ([19]; 24 h) was 97%. For the same molecule, the inhibition at 100 µg/mL ([19]; 24 h) was 98.9%, the IC50 ([19]; 48 h, read-out: IC50, P. jiroveci) was 0.159 µg/mL (≈ 0.477 µM) and the inhibition at 0.1 µg/mL ([19]; 48 h) was 26.2%. It also gave an inhibition at 1 µg/mL ([19]; 48 h) of 92.6%, an inhibition at 10 µg/mL ([19]; 48 h) of 97.8% and an inhibition at 100 µg/mL ([19]; 48 h) of 98.6%. The IC50 ([19]; 72 h, read-out: IC50, P. jiroveci) was 0.074 µg/mL (≈ 0.222 µM), the inhibition at 0.1 µg/mL ([19]; 72 h) was 39.1% and the inhibition at 1 µg/mL ([19]; 72 h) was 87.8%. It also gave an inhibition at 10 µg/mL ([19]; 72 h) of 94.8%, an inhibition at 100 µg/mL ([19]; 72 h) of 98.1% and an IC50 ([19]; 96 h, read-out: IC50, P. jiroveci) of 0.072 µg/mL (≈ 0.216 µM). It also gave an inhibition at 0.1 µg/mL ([19]; 96 h) of 46.2%, an inhibition at 1 µg/mL ([19]; 96 h) of 77% and an inhibition at 10 µg/mL ([19]; 96 h) of 90.1%. It also gave an inhibition at 100 µg/mL ([19]; 96 h) of 98.9% and an IC50 ([19]; read-out: activity class by IC50, P. jiroveci) of 0.011 to 0.099 µg/mL (≈ 0.033 to 0.297 µM).
